Test [1] deals with U2OS cells. The test can be described thus: Incucyte cell confluency, U2OS cells. In kind it is cell-based. Conditions: U2OS shIRE1 cells, titration. As to the method: (§1) For non-adherent AMO1, KMS27, and OPM2 cells, cells were plated at 5000 cells/well in ultra-low attachment (ULA) 96-well plates (Costar, #7007) and centrifuged at 600 × g for 5 min for spheroid formation. For adherent U2OS and Colo201 cells, 2000 cells/well were seeded in a clear flat-bottom 96-well plate (Costar, #3595). Treatments were added at the time of cell seeding, and cells were cultured in complete RPMI media to a final volume of 200 µL/well. Cultures were maintained at 37 °C throughout the duration of the experiment. Cell confluency was tracked using the Incucyte live-cell imaging system (Sartorius S3). Picture frames were captured every 4 h with a 4× objective, and cell confluency (%) from the total well area as a function of time was calculated using the Incucyte software (version 2023 A Rev2).

The subject of test [2] is VCB. As to the kind of experiment: Fluorescence polarization displacement of FAM-labeled HIF-1α peptide from VCB. The test is classed as binding. Conditions: ratio between IC50 of VCB: G6374 and VCB: (G6374 + IRE1). The method, then:
(§2) Assays were performed in duplicates on ProxiPlate-384 F Plus (Revvity, #6008260) with a total well volume of 16 µL. Each well contained 50 nM of FAM-labeled HIF-1α peptide (FAM-DEALA-Hyp-YIPD, biotechne, #7287), 500 nM of VCB protein, and a titration of G6374 (2-fold serial dilutions from […] to 625 nM, then 1.3-fold serial dilutions to 284.5 nM, followed by 2-fold serial dilutions to 8.9 nM) or IRE1.KR:G6374 (constant concentration of 2.4 µM IRE1.KR and the same serial dilution of G6374 as mentioned above) in 50 mM HEPES pH 7.2, 100 mM NaCl, 1 mM TCEP, and 0.002% Tween 20 with a final concentration of DMSO of 1.5%. The plate was incubated at room temperature in the dark, first for 5 min on a shaker at 300 rpm, then for another 30 min on the bench. FP was measured using the EnVision Multimode Plate Reader (PerkinElmer) with fluorescence excitation and emission wavelengths of 480 nm and 535 nm. The percentage of HIF-1α displacement was calculated by normalization to maximum fluorescence anisotropy (or 0% displacement of the HIF-1α peptide) and minimum fluorescence anisotropy (or 100% displacement of the HIF-1α peptide), which were determined by “top” and “bottom” values of the curve fit of fluorescence anisotropy against G6374 concentration in GraphPad Prism 10 (GraphPad Software, Inc.). The IC50 values were then determined by curve fitting with the percentage of HIF-1α displacement against G6374 concentration in GraphPad Prism 10 (GraphPad Software, Inc.).

Test [3] concerns the target VCB (Homo sapiens, UniProt P40337). The description is as above. The test is classed as binding. The method, then: as §2
For test [4], the system named is KMS27 cells. The test can be described thus: Incucyte cell confluency, KMS27 cells. In kind it is cell-based. The note with it: KMS27 shIRE1 cells, titration. The method, then: as §1
Test [5] has as its target T1, IRE1 H579A (Homo sapiens, UniProt O75460+P40337, H579A).
T1 construct: N2731; host or cells: HEK293T
As to the kind of experiment: NanoLuc signal IRE1 depletion, IRE1 H579A, HEK293T cells. In kind it is cell-based. The note with it: HEK-293T. As to the method: 8 × 10^5 293T cells per well were seeded in 6-well plates (Costar, #3516) and incubated at 37 °C, 5% CO2 for 6 h. A mixture of 0.2 µg ERN1 (IRE1)-NanoLuc Fusion Vector (Promega, NV1321), 2 µg HaloTag-VHL Fusion Vector (Promega, N2731), 6 µl FuGENE HD Transfection Reagent (Promega, E2311), and 100 µL Opti-MEM I reduced serum medium (Gibco, #31985062) per well was incubated at room temperature for 20 min before adding to cells. For expression of IRE1 mutants, site-directed mutagenesis was performed using the ERN1-NanoLuc Fusion Vector as the DNA template, and the transfection mixture was prepared in the same way as WT IRE1. After 18 h, cells from 6-well plates were trypsinized, resuspended in Opti-MEM I reduced serum medium, and reseeded into 96-well plates (Costar, #3917), with or without the addition of HaloTag NanoBRET 618 Ligand (Promega, G9801). After 18 h of incubation, a titration of G6374 (dilutions made in Opti-MEM I reduced serum medium) was added to the cells. After 2 h of G6374 treatment, NanoBRET Nano-Glo Substrate (Promega, N1571) was added to cells. The 96-well plates were imaged by GloMax Discover Microplate Reader (Promega, GM3000) with the default “BRET: NanoBRET 618” protocol (Donor: 450 BP; Acceptor: 600 LP; Integration: 0.3 s). Data analysis was performed according to the user manual.

Values joined by “and” are separate entries in the source; they are usually repeats but may differ in a detail not shown here. Equal entries are not always repeated.

As usually defined, the IC50 is the midpoint of a concentration-inhibition curve.

Chain of VCB (Homo sapiens, UniProt P40337) (Q15370 whole entry): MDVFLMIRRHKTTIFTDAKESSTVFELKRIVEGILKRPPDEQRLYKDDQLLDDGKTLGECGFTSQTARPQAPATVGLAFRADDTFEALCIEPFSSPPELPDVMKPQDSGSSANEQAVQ
Chain of VCB (Homo sapiens, UniProt P40337) (Q15369 17-112, further chain): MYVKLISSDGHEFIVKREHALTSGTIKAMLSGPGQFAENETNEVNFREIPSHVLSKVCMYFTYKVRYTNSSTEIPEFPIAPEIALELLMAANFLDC
Chain of VCB (Homo sapiens, UniProt P40337) (P40337 55-213): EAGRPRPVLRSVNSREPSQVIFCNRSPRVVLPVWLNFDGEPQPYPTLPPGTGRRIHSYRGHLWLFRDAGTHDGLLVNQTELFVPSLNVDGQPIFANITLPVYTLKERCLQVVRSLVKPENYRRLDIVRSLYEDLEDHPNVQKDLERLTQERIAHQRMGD
T1 sequence (O75460 19-977 H579A): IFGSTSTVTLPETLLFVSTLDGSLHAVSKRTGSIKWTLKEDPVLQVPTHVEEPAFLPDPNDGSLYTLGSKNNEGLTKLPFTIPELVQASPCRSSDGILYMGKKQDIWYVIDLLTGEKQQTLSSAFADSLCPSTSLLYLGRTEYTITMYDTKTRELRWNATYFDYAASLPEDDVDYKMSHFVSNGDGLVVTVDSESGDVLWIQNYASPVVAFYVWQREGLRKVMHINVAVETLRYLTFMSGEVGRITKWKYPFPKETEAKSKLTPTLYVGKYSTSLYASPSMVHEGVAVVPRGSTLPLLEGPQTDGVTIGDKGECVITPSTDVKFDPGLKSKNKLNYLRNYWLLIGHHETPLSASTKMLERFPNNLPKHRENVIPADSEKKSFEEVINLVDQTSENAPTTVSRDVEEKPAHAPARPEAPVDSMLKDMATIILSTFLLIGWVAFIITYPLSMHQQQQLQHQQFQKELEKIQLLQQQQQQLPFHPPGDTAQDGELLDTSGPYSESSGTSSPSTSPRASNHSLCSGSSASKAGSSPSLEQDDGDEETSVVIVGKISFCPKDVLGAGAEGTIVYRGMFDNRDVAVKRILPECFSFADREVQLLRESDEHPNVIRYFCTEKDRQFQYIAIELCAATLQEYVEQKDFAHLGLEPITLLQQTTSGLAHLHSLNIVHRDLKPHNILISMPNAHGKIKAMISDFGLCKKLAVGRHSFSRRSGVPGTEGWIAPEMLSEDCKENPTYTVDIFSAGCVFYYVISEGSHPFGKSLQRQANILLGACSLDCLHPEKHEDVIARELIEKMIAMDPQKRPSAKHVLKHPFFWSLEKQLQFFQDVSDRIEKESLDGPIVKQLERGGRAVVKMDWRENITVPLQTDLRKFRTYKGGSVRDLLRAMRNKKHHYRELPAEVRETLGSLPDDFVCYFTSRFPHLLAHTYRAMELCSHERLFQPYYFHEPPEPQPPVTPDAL
T1 sequence (P40337 whole entry): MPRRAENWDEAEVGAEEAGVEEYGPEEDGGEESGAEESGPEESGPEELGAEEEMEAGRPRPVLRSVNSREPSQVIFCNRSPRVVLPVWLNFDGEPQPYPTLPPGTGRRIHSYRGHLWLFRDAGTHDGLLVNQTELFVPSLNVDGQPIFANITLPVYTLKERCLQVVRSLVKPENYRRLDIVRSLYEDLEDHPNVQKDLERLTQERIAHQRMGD
T1 sequence (Q15369 whole entry partner): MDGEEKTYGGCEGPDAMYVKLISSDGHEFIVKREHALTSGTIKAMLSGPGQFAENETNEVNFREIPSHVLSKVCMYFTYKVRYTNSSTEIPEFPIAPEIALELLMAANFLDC
T1 sequence (Q15370 whole entry partner): as the sequence (Q15370 whole entry) above
T1 sequence (Q13617 whole entry partner): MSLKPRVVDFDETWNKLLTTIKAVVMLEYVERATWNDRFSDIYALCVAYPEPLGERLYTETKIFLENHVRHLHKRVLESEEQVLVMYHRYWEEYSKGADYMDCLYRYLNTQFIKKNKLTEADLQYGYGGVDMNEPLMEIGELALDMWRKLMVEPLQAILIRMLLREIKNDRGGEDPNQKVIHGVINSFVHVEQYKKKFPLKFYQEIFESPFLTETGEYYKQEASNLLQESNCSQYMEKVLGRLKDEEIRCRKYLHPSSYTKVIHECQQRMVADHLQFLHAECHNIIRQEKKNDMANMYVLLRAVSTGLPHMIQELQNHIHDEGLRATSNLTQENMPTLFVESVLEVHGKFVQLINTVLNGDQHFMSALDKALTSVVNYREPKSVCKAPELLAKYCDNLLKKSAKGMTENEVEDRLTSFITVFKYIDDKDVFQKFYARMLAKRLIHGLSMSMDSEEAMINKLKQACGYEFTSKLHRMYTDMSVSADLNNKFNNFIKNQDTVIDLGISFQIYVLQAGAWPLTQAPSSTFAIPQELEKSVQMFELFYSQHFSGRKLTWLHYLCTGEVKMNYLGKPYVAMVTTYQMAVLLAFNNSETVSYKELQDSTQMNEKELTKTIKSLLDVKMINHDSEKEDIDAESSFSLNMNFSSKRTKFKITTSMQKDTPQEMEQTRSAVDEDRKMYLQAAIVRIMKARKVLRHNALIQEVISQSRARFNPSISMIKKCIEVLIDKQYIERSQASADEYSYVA
T1 sequence (P62877 whole entry partner): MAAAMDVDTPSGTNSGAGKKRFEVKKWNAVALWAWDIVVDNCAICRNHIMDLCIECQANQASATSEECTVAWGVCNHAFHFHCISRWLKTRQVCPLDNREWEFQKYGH

For the compound `Cc1ncsc1-c1ccc(CNC(=O)[C@@H]2C[C@@H](O)CN2C(=O)[C@@H](NC(=O)CCCCN2CCN([C@H]3CC[C@H](Nc4ncc5ccc(=O)n(C(C)C)c5n4)CC3)CC2)C(C)(C)C)cc1` [G6374], in test [1], the “proliferation rate (cell confluency)” value was “did not affect the proliferation rate”. For the same compound, in test [2], the Cooperativity alpha was 5 and 5 ± 0.15. The IC50 in test [3] (G6374 alone, absence of IRE1, N=3, mean ± SEM) was 2.48 ± 0.112 µM; in test [3] (G6374 in the presence of saturating IRE1 (2.4 µM), N=3, mean ± SEM) it was 0.492 ± 0.021 µM. In addition, the “growth inhibition (cell confluency)” value in test [4] is on record as “concentration-dependent growth inhibition”. Also, the Dmax in test [5] was found to be 27%.
